The text below walks through data of patent US20130029942A1, “COMPOUNDS AND THERAPEUTICAL USES THEREOF” (Myrexis, Inc., priority 2003, published 2013).

The first assay deals with T-47D cells. Put plainly: Caspase cascade activation / induction of apoptosis in T-47D cells (fluorogenic N-(Ac-DEVD)-N'-ethoxycarbonyl-R110 substrate). It counts as cell-based, human. The settings on record: Homo sapiens, T47D, 24 h, read-out: T-47D (24 hr) EC50 (nM).
The EC50 is the concentration at which the effect is half-maximal. `[2H]c1c([2H])c(N(C)c2nc(C)nc3ccccc23)c([2H])c([2H])c1OC` [Example 108, (4-Methoxy-phenyl-2,3,5,6-d4)-(2-methyl-quinazolin-4-yl)-methyl-amine]: the concentration for a half-maximal effect (EC50) amounted to 1 nM.
On to `COc1ccc(N(C)c2nc(C)nc3cc([N+](=O)[O-])ccc23)cc1` [Example 112, (4-Methoxy-phenyl)-methyl-(2-methyl-7-nitro-quinazolin-4-yl)-amine], for which the EC50 is greater than 10000 nM.

The assay is the same for the next values; noted with them: Homo sapiens, T47D; T-47D, 24 hr; read-out: T-47D (24 hr) EC50.
In the case of `COc1ccc(N(C)c2nc(C)nc3ccccc23)c(F)c1` [Example 99, (2-Fluoro-4-methoxy-phenyl)-(2-methyl-quinazolin-4-yl)-methyl-amine], the EC50 stood at 4 nM.
Still for that read-out and setting: under `Cc1nc(N(C)c2ccc([N+](=O)[O-])cc2)c2ccccc2n1` [Example 100, (2-Methyl-quinazolin-4-yl)-(4-nitro-phenyl)-methyl-amine] stands 474 nM.
Still for that read-out and setting: under `Cc1nc(N(C)c2ccc(N)cc2)c2ccccc2n1` [Example 101, (4-Amino-phenyl)-(2-methyl-quinazolin-4-yl)-methyl-amine] stands 175 nM.
As for `Cc1nc(N(C)c2ccc(N=[N+]=[N-])cc2)c2ccccc2n1` [Example 102, (4-Azido-phenyl)-(2-methyl-quinazolin-4-yl)-methyl-amine], the 50% effective concentration (EC50) came out at 5 nM.
Still for that read-out and setting: under `Cc1nc(N(C)c2c(Br)cc(N)cc2Br)c2ccccc2n1` [Example 103, (4-Amino-2,6-dibromo-phenyl)-(2-methyl-quinazolin-4-yl)-methyl-amine] stands 552 nM; under `Cc1nc(N(C)c2ccc(N)cc2Br)c2ccccc2n1` [Example 104, (4-Amino-2-bromo-phenyl)-(2-methyl-quinazolin-4-yl)-methyl-amine], 134 nM; under `Cc1nc(N(C)c2ccc(N(C)C)cc2)c2ccccc2n1` [Example 105, (4-Dimethylamino-phenyl)-(2-methyl-quinazolin-4-yl)-methyl-amine], 2 nM.
On the same count and under the same terms, then `CCOc1ccc(Nc2nc(C)nc3ccccc23)cc1` [Example 106, (4-Ethoxy-phenyl)-(2-methyl-quinazolin-4-yl)-amine], with greater than 10000 nM.
Same read-out and setting: under `CCOc1ccc(N(C)c2nc(C)nc3ccccc23)cc1` [Example 107, (4-Ethoxy-phenyl)-(2-methyl-quinazolin-4-yl)-methyl-amine] stands 5 nM; under `COc1ccc(N(C)c2nc(C)nc3ccc([N+](=O)[O-])cc23)cc1` [Example 109, (4-Methoxy-phenyl)-(2-methyl-6-nitro-quinazolin-4-yl)-methyl-amine], 274 nM; under `COc1ccc(N(C)c2nc(C)nc3ccc(N)cc23)cc1` [Example 110, (6-Amino-2-methyl-quinazolin-4-yl)-(4-methoxy-phenyl)-methyl-amine], 7 nM.
On to `COc1ccc(N(C)c2nc(C)nc3ccc(N=[N+]=[N-])cc23)cc1` [Example 111, (6-Azido-2-methyl-quinazolin-4-yl)-(4-methoxy-phenyl)-methyl-amine], for which the concentration for a half-maximal effect (EC50) worked out at 32 nM.
With `COc1ccc(N(C)c2nc(C)nc3cc(N)ccc23)cc1` [Example 113, (7-Amino-2-methyl-quinazolin-4-yl)-(4-methoxy-phenyl)-methyl-amine], the 50% effective concentration (EC50) was 735 nM.
Same read-out and setting: then `COc1ccc(N(C)c2nc(C)nc3cc(N=[N+]=[N-])ccc23)cc1` [Example 114, (7-Azido-2-methyl-quinazolin-4-yl)-(4-methoxy-phenyl)-methyl-amine], with 130 nM; and `COc1c(Br)cc(N(C)c2nc(C)nc3ccc([N+](=O)[O-])cc23)cc1Br` [Example 115, (3,5-Dibromo-4-methoxy-phenyl)-(2-methyl-6-nitro-quinazolin-4-yl)-methyl-amine], with greater than 10000 nM.
The same measure, in the same setting: then `Cc1nc(N(C)c2ccc(C(=O)O)cc2)c2ccccc2n1` [Example 116, 4-(N-Methyl-N-(2-methylquinazolin-4-yl)amino)benzoic Acid], with greater than 10000 nM; and `CCOC(=O)c1nc(N(C)c2ccc(OC)cc2)c2ccccc2n1` [Example 117, Ethyl 4-(N-(4-Methoxy-phenyl)-N-methylamino)quinazoline-2-carboxylate], with 134 nM.
Turning to `COc1ccc(N(C)c2nc(C(=O)O)nc3ccccc23)cc1` [Example 118, 4-(N-(4-Methoxy-phenyl)-N-methylamino)quinazoline-2-carboxylic acid], the concentration giving a half-maximal response (EC50) was greater than 10000 nM.
Regarding `Cc1nc(N(C)c2ccc(C(=O)ON3C(=O)CCC3=O)cc2)c2ccccc2n1` [Example 119, Succinimidyl 4-(N-Methyl-N-(2-methylquinazolin-4-yl)amino)benzoic acid ester], the concentration for a half-maximal effect (EC50) was determined as 4290 nM.
Still for that read-out and setting: then `COc1ccc(N(C)c2nc(SC)nc3ccccc23)cc1` [Example 120, (2-Methylthio-quinazolin-4-yl)-(4-methoxy-phenyl)-methyl-amine], with 8 nM.
The same measure, in the same setting: then `COc1ccc(N(C)c2nc(N=[N+]=[N-])nc3ccccc23)cc1` [Example 121, (2-Azido-quinazolin-4-yl)-(4-methoxy-phenyl)-methyl-amine], with 30 nM.
Consider `COc1ccc(N(C)c2nc(N(C)C)nc3ccccc23)cc1` [Example 122, (2-Dimethylamino-quinazolin-4-yl)-(4-methoxy-phenyl)-methyl-amine], for which the EC50 was 16 nM.
Take `CNc1nc(N(C)c2ccc(OC)cc2)c2ccccc2n1` [Example 123, (2-Methylamino-quinazolin-4-yl)-(4-methoxy-phenyl)-methyl-amine]: the EC50 is 8 nM.
On to `Cc1nc(N(C)c2ccc(F)cc2)c2ccccc2n1` [Example 124, (4-Fluoro-phenyl)-(2-methyl-quinazolin-4-yl)-methyl-amine], for which the half-maximal effective concentration (EC50) stood at 408 nM.
Still for that read-out and setting: under `COc1ccc(N(C)c2nc(C)nc3ccccc23)nn1` [Example 125, (6-Methoxy-pyridazin-3-yl)-(2-methyl-quinazolin-4-yl)-methyl-amine] stands 385 nM.
Take `COc1cnc(N(C)c2nc(C)nc3ccccc23)cn1` [Example 126, (5-Methoxy-pyrazin-2-yl)-(2-methyl-quinazolin-4-yl)-methyl-amine]: the EC50 stood at 55 nM.
In the case of `Cc1nc(Nc2ccc(O)cc2)c2ccccc2n1` [Example 127, (4-hydroxy-phenyl)-(2-methyl-quinazolin-4-yl)-amine], the concentration giving a half-maximal response (EC50) was greater than 10000 nM.
In the case of `COc1ccc(N(C)c2nc(N(C)C)nc3ccccc23)cn1` [Example 128, (2-Dimethylamino-quinazolin-4-yl)-(6-methoxy-pyridin-3-yl)-methyl-amine], the EC50 amounted to 58 nM.
On to `CNc1nc(N(C)c2ccc(OC)nc2)c2ccccc2n1` [Example 129, (2-Methylamino-quinazolin-4-yl)-(6-methoxy-pyridin-3-yl)-methyl-amine], for which the EC50 was found to be 27 nM.
The same measure, in the same setting: then `C[C@H]1CC[C@@H](Nc2nc(Cl)nc3ccccc23)CC1` [Example 130, (2-Chloro-quinazolin-4-yl)-(cis-4-methylcyclohexyl)-amine], with greater than 10000 nM; and `C[C@H]1CC[C@H](Nc2nc(Cl)nc3ccccc23)CC1` [Example 131, (2-chloro-quinazolin-4-yl)-(trans-4-methylcyclohexyl)-amine], with greater than 10000 nM; and `CN(c1nc(Cl)nc2ccccc12)[C@H]1CC[C@@H](C)CC1` [Example 132, (2-Chloro-quinazolin-4-yl)-(cis-4-methylcyclohexyl)-methyl-amine], with greater than 10000 nM.
Regarding `CN(c1nc(Cl)nc2ccccc12)[C@H]1CC[C@H](C)CC1` [Example 133, (2-Chloro-quinazolin-4-yl)-(trans-4-methylcyclohexyl)-methyl-amine], the EC50 was greater than 10000 nM.
Still for that read-out and setting: under `Cc1nc(N(C)c2cnccn2)c2ccccc2n1` [Example 134, (2-Methyl-quinazolin-4-yl)-(pyrazin-2-yl)-methyl-amine] stands greater than 10000 nM; under `Cc1nc(Nc2ccncc2)c2ccccc2n1` [Example 135, (2-Methyl-quinazolin-4-yl)-(pyridin-4-yl)-amine], greater than 10000 nM; under `Cc1nc(N(C)c2ccncc2)c2ccccc2n1` [Example 136, (2-Methyl-quinazolin-4-yl)-(pyridin-4-yl)-methyl-amine], greater than 10000 nM.
The same measure, in the same setting: then `COc1ccc(Nc2nc(C)nc3ccccc23)nc1` [Example 137, (5-Methoxy-pyridin-2-yl)-(2-methyl-quinazolin-4-yl)-amine], with greater than 10000 nM; and `COc1ccc(N(C)c2nc(C)nc3ccccc23)nc1` [Example 138, (5-Methoxy-pyridin-2-yl)-(2-methyl-quinazolin-4-yl)-methyl-amine], with 15 nM; and `COc1ccc(N(c2nc(C)nc3ccccc23)C(F)F)cc1` [Example 139, Difluoromethyl-(4-methoxy-phenyl)-(2-methyl-quinazolin-4-yl)-amine], with 4660 nM.
Still for that read-out and setting: under `COc1ccc(N(C)c2nc(C)nc3nccnc23)cc1` [Example 140, (4-Methoxy-phenyl)-(2-methyl-pteridin-4-yl)-methyl-amine] stands 27 nM; under `COc1cnc(Nc2nc(C)nc3ccccc23)nc1` [Example 141, (5-Methoxy-pyrimidin-2-yl)-(2-methyl-quinazolin-4-yl)-amine], greater than 10000 nM.

The same assay, now with this note: Homo sapiens, T47D; T-47D, 48 hr; read-out: T-47D (48 hr) EC50.
`Cc1nc(N(C)c2ccc(N=[N+]=[N-])cc2)c2ccccc2n1` [Example 102, (4-Azido-phenyl)-(2-methyl-quinazolin-4-yl)-methyl-amine]: the 50% effective concentration (EC50) was determined as 16 nM.

Staying with this assay, now noted: T-47D, 24 hr.
Consider `C[C@H]1CC[C@H](Nc2nc(Cl)nc3ccccc23)CC1` [Example 131, (2-chloro-quinazolin-4-yl)-(trans-4-methylcyclohexyl)-amine], for which the “T-47D (24 hr) Ratio (caspase activity, net RFU compound / control)” value is on record as 1.2.
